In patent publication US20250388605A1, “HETEROBIFUNCTIONAL COMPOUNDS AND METHODS OF TREATING DISEASE” (Halda Therapeutics OpCo, Inc., priority 2022, published 2025):

target: T1, progesterone receptor (Homo sapiens, UniProt P06401); test: PR Human Progesterone NHR Binding (Agonist Radioligand) Assay, [3H]progesterone, T47D cytosolic fractions; details: 0.5 nM [3H]progesterone, 1 hour at 4° C.
T1 sequence (P06401 679-933 limits assumed): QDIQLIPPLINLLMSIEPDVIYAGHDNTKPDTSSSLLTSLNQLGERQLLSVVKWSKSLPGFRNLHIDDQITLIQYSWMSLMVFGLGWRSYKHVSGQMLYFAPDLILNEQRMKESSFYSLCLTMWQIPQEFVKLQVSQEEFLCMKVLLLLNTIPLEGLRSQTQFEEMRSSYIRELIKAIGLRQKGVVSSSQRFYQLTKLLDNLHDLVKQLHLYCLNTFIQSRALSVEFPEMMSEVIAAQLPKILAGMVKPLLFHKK
Procedure: Exemplary compounds were tested for ability to bind to the progesterone receptor.
Compounds were tested using the PR Human Progesterone NHR Binding (Agonist Radioligand) Assay, Cerep at Eurofins Discovery using a modified version of the protocol from Sarup et al. (Cancer Res 1988; 48:5071-5078). Briefly, cytosolic fractions of T47D cells were incubated with 0.5 nM [^3H]progesterone for 1 hour at 4° C. in the absence or presence of the test compound. Nonspecific binding was determined in the presence of […] promegestone. Reactions were subjected to scintillation counting. Results are expressed as a percent inhibition of the control radioligand specific binding.

Row | Ki [nM] | Structure (SMILES)
1 | < 50 | CCS(=O)(=O)Nc1ccc(Oc2cccc(CCOC3CCN(c4ncc(C(=O)N[C@H]5C(C)(C)[C@H](Oc6ccc(C#N)c(Cl)c6)C5(C)C)cn4)CC3)c2)c(-c2cn(C)c(=O)c3[nH]ccc23)c1 [Compound I-19]
2 | < 50 | CCS(=O)(=O)c1ccc(Oc2cccc(OCCOC3CCN(c4ccc(C(=O)N[C@H]5C(C)(C)[C@H](Oc6ccc(C#N)c(Cl)c6)C5(C)C)cn4)CC3)c2F)c(-c2cn(C)c(=O)c3[nH]ccc23)c1 [Compound I-185]
3 | < 50 | Cn1cc(-c2cc(C(C)(C)O)ccc2Oc2ccc(N3CC(CC4CCN(c5ncc(C(=O)N[C@H]6C(C)(C)[C@H](Oc7ccc(C#N)c(Cl)c7)C6(C)C)cn5)CC4)C3)cc2)c2cc[nH]c2c1=O [Compound I-232]
